Common to all, as to design: scale not given: the % may be the effect or the level left
Assay [1] has as its target Bone morphogenetic protein receptor type-1A (Homo sapiens) (UniProt P36894). Briefly: Inhibition of human ALK3 assessed as enzyme activity at 1 uM using casein as substrate preincubated for 20 mins followed by [gamma-33P]-ATP addition and measured after 120 mins by radiometric Hot-SpotSM Kinase assay relative to control.
The target of assay [2] is T1, Discoidin domain-containing receptor 2 (Homo sapiens) (UniProt Q16832).
T1 sequence (whole entry): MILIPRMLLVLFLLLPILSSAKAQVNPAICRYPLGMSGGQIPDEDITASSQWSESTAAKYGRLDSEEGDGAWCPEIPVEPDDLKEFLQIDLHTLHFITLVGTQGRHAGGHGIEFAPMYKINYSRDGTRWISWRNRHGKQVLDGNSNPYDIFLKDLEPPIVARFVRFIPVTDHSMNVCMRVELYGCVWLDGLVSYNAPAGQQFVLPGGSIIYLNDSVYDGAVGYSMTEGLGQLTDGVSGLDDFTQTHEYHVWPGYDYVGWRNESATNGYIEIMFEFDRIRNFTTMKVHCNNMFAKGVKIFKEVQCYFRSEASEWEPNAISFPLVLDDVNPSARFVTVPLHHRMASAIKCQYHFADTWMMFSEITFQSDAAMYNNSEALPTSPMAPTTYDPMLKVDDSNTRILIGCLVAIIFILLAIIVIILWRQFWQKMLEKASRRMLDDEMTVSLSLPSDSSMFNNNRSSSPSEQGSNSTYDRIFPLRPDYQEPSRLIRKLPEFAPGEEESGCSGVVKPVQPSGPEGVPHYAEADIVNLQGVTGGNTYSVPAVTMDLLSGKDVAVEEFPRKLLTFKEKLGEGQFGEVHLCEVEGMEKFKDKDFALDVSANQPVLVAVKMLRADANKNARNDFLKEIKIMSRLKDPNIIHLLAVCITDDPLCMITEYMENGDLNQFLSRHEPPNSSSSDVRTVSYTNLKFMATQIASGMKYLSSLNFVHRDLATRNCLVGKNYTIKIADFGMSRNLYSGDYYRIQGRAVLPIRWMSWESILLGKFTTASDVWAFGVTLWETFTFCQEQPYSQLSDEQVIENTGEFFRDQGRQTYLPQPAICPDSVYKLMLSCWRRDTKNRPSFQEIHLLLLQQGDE
Briefly: Inhibition of human DDR2 assessed as enzyme activity at 1 uM using KKSRGDYMTMQIG as substrate preincubated for 20 mins followed by [gamma-33P]-ATP addition and measured after 120 mins by radiometric Hot-SpotSM Kinase assay relative to control.

Assay [3] deals with T2, Dual specificity mitogen-activated protein kinase kinase 4 (Homo sapiens) (UniProt P45985).
T2 sequence (whole entry): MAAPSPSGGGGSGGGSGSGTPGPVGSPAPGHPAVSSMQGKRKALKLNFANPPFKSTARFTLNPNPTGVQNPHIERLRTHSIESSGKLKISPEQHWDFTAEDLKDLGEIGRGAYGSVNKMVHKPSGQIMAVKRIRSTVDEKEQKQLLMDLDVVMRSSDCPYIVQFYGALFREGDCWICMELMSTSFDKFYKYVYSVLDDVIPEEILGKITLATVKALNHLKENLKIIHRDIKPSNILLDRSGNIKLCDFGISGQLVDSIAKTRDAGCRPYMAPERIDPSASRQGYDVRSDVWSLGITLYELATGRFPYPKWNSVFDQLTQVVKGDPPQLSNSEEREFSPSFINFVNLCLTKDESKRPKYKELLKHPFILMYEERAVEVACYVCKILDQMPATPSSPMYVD
Briefly: Inhibition of human MKK4 assessed as enzyme activity at 1 uM using JNK1 (K55M) as substrate preincubated for 20 mins followed by [gamma-33P]-ATP addition and measured after 120 mins by radiometric Hot-SpotSM Kinase assay relative to control.

The target in assay [4] is Ribosomal protein S6 kinase alpha-4 (Homo sapiens) (UniProt O75676). Briefly: Inhibition of human MSK2 assessed as enzyme activity at 1 uM using GRPRTSSFAEG as substrate preincubated for 20 mins followed by [gamma-33P]-ATP addition and measured after 120 mins by radiometric Hot-SpotSM Kinase assay relative to control.
The target of assay [5] is STE20/SPS1-related proline-alanine-rich protein kinase (Homo sapiens) (UniProt Q9UEW8). Briefly: Inhibition of human STK39 assessed as enzyme activity at 1 uM using myelin basic protein as substrate preincubated for 20 mins followed by [gamma-33P]-ATP addition and measured after 120 mins by radiometric Hot-SpotSM Kinase assay relative to control.
In assay [6] the target is T3, Serine/threonine-protein kinase ULK2 (Homo sapiens) (UniProt Q8IYT8).
T3 sequence (whole entry): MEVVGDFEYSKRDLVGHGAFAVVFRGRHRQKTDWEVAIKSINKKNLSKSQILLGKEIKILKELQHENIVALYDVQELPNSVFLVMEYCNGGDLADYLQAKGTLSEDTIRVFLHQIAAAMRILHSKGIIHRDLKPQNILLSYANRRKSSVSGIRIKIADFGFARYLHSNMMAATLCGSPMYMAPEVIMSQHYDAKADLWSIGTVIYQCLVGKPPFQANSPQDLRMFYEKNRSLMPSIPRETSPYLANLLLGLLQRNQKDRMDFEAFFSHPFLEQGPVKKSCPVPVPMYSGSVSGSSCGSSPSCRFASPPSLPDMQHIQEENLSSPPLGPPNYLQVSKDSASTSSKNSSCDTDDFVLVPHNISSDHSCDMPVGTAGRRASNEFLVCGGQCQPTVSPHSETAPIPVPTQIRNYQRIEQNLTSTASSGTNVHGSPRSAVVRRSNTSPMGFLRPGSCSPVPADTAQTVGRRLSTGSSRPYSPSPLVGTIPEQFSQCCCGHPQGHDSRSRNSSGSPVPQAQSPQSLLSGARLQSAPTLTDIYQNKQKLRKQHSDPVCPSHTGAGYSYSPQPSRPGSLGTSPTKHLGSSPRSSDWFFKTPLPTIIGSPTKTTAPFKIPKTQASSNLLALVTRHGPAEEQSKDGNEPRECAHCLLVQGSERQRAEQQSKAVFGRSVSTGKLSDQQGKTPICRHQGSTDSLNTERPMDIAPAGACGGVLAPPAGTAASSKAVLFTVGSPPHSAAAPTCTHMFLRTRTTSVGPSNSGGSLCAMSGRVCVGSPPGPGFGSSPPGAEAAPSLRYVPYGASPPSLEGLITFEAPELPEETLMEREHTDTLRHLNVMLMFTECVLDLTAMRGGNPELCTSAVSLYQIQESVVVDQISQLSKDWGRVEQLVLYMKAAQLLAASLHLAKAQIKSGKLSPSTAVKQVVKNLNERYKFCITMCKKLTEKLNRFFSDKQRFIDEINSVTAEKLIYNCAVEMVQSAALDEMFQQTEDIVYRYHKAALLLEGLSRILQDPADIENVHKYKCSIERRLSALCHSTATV
Briefly: Inhibition of human ULK2 assessed as enzyme activity at 1 uM using myelin basic protein as substrate preincubated for 20 mins followed by [gamma-33P]-ATP addition and measured after 120 mins by radiometric Hot-SpotSM Kinase assay relative to control.

Chain of Ribosomal protein S6 kinase alpha-4 (Homo sapiens) (O75676 whole entry, looked up): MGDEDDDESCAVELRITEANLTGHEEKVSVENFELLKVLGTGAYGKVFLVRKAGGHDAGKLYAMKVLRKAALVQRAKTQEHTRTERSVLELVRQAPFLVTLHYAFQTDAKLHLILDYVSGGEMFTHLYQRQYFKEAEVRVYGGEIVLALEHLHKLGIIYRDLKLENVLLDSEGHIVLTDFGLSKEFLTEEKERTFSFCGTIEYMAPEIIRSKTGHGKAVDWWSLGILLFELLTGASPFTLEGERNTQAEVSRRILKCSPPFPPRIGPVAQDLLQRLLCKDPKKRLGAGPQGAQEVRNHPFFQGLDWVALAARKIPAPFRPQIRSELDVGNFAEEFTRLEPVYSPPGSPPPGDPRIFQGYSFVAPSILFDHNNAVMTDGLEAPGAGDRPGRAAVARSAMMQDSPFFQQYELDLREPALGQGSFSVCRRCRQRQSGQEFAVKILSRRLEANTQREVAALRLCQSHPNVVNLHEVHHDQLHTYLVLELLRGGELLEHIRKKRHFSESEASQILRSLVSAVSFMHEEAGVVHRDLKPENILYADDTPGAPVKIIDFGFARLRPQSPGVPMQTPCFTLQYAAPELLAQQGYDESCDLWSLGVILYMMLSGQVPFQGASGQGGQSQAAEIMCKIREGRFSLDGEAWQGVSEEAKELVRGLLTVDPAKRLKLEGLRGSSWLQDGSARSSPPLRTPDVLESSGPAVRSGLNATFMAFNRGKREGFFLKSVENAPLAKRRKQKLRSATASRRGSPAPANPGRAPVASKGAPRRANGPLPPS
Chain of Bone morphogenetic protein receptor type-1A (Homo sapiens) (P36894 whole entry, the tested form may be a part): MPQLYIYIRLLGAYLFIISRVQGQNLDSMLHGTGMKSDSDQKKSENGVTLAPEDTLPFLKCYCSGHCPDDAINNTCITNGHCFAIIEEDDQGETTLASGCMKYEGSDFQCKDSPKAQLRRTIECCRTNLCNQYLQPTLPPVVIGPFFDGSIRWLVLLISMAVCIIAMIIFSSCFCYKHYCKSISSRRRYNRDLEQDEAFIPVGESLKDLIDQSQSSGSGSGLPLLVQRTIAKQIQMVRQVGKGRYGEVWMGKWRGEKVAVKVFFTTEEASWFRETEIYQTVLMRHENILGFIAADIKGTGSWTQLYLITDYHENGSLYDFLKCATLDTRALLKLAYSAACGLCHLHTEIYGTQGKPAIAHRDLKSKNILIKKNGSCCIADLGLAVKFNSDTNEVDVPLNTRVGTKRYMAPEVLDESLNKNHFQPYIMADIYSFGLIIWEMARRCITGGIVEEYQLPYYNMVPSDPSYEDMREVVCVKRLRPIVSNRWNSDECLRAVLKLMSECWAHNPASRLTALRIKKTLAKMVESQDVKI

Consider `C[C@H](Nc1ncnc2nc[nH]c12)c1cc2cccc(Cl)c2c(=O)n1-c1ccccc1`, for which the Activity in assay [1] stood at 101%; in assay [2], 110%; in assay [3], 96.9%; in assay [4], 98.8%; in assay [5], 78.1%; in assay [6], 98.4%.

With `CC[C@H](Nc1ncnc2[nH]cnc12)c1nc2cccc(F)c2c(=O)n1-c1ccccc1`, the Activity stood at 105% in assay [1]; 106% in assay [2]; 99.9% in assay [3]; 98.1% in assay [4]; 87.1% in assay [5]; 89.3% in assay [6].

As for `CC(C)Oc1ccc(-c2nn([C@@H](C)c3oc4ccc(F)cc4c(=O)c3-c3cccc(F)c3)c3ncnc(N)c23)cc1F` [UMBRALISIB], the Activity in assay [1] was 89.5%; in assay [2], 104%; in assay [3] it was 98.7%; in assay [4], 94.2%; in assay [5], 85.4%; in assay [6], 101%.

These data come from ChEMBL document CHEMBL5715954, “Silencing c-Myc translation as a therapeutic strategy through targeting PI3Kδ and CK1ε in hematological malignancies” (Blood, 2017).
